Test results published in US4457864A, “Synthetic analogues of α-melanotropin” (University Patents, Inc., priority 1981, dated 1984).
“Also recorded” adds a separate entry of the source. Read-outs that look alike come from different tables or passages of the source.

Columns and labels:
[1] = literature reports, cited from earlier work
[2] = test system: frog (Rana pipiens); assay: in vivo skin darkening (reflectance) in frogs after a single subcutaneous injection
Text: (§1) [Nle^4, D-Phe^7 ]-α-MSH was examined for its biological effects on melanosome dispersion in vivo, using the frog (Rana pipiens), and the lizard (Anolis carolinensis). See, Hadley, et al. Science, 213, pp. 1025-1027 (1981).
Frogs of both sexes were placed in white plastic containers with a small amount of water under overhead illumi-nation. Under these conditions, the animals became light green in color, presumably because they were not releasing any endogenous α-MSH. Forty-eight hours later, light reflectance from the dorsal surface of the animals was measured with a Photovolt reflectometer. At this time, the frogs were injected subcutaneously with Ringer solution (controls) or Ringer solutions containing α-MSH, [Nle^4 ]-α-MSH, or [Nle^4, D-Phe^7 ]-α-MSH (100 μl of a 10^-4 M solution per 10 g of body weight) to provide a final body concentration of approximately 18 μg/10 g. Subsequent reflectance values were taken at 2- to 3-day intervals for 6 weeks.

[3] = cited from earlier work
[4] = resistance to serum proteolytic enzyme degradation, residual activity by in vitro frog skin bioassay; format: in vitro ADME; settings: 10 nM peptide, 37° C., Ham's F-10 with 10% horse serum and 2% fetal calf serum, up to 72 hours; FIG. 3
Description: Synthetic α-MSH, [Nle^4 ]-α-MSH and [Nle^4, D-Phe^7 ]-α-MSH were incubated (37° C.) under sterile conditions in Corning flasks containing Ham's F-10 media containing 10% horse serum and 2% fetal calf serum. Samples of the media containing the peptides (10 nM) were removed at time zero and at 24, 48 and 72 hours. The samples were immediately frozen and assayed for biological activity using the in vitro frog skin bioassay.

[5] = test system: amphibian melanophores; settings: Sawyer et al.; cited from earlier work
[6] = test system: adenylate cyclase in Cloudman S-91 mouse melanoma tumors; settings: Sawyer et al.; cited from earlier work
[7] = test system: adenylate cyclase in Cloudman S-91 mouse melanoma tumors; assay: retention of adenylate cyclase activity after iodination; format: biochemical; settings: iodinated through use of lacto peroxidase or iodogen
Description: (§2) The relative effects of α-MSH, [Nle^4 ]-α-MSH and [Nle^4, D-Phe^7 ]-α-MSH on mammalian melanoma adenylate cyclase activity in vitro were determined by assaying [^α-32 P] ATP conversion to [^32 P]cAMP in Cloudman S-91 mouse melanoma tumors as described in Sawyer, et al., supra. [^32 P]cAMP was isolated, purified and dectected according to Salomon et al., Anal. Biochem., 58, pp. 541-48 (1974).
The procedures of Hunter, et al., Nature, 194, pp. 495-496 (1962) were applied to [Nle^4, D-Phe^7 ]-α-MSH and the resultant compound was tested for adenylate cyclase activity as in Example 2.

[8] = test system: adenylate cyclase in Cloudman S-91 mouse melanoma tumors; assay: melanoma adenylate cyclase activity in vitro ([α-32P]ATP conversion to [32P]cAMP); format: biochemical
Description: as §2

[9] = test system: Cloudman S-91 NCTC 3960 (CCL 53.1) melanoma cells; assay: tyrosinase activity of melanoma cells in tissue culture (3H2O release from [3H]tyrosine); format: cell-based, mouse; settings: 0.1 μM melanotropin, exposure 0.5, 4 and 8 hr, then 24 hr with [3H]tyrosine; FIG. 2
Description: Cloudman S-91 NCTC 3960 (CCL 53.1) melanoma cells were obtained from the American Type Culture Collection Cell Repository and were grown and maintained as described in Fuller, et. al. Pigment Cell, 4 pp. 97-104 (1979). Melanoma cells (2×10^5) were seeded in 25 cm^2 flasks and allowed to attach overnight. At time t=0, the medium in all the flasks was replaced with 4 ml of medium containing 0.1 μM melanotropin (i.e., α-MSH, [Nle^4 ]-α-MSH, or [Nle^4, D-Phe^7 ]-α-MSH) or a control medium containing no melanotropin. At selected time intervals (t=0.5, 4, and 8 hr.) the control medium and melanotropin-containing medium was removed. The cells were carefully rinsed three times with fresh melanotropin-free medium and then exposed to fresh melanotropinfree medium containing [^3 H]-tyrosine (specific activity 48 Ci/mmol; 1 Ci=3.7×10^10 becquerels) at 1 μCi/ml. After 24 hr, this medium was removed and the tyrosinase activity of the melanoma cells was determined by assaying for the ^3 H2 O released from the [^3 H]tyrosine by the action of tyrosinase.
Tyrosinase activities are expressed as percent activity of control cells (i.e., cells not exposed to melanotropin). Each bar represents the mean of four determinations ±SEM.

[10] = test system: lizard (Anolis carolinensis); assay: in vivo skin darkening in lizards after a single injection; settings: 18 μg/10 g final body concentration
Text: as §1

[11] = test system: frog (Rana pipiens) skin melanophores; assay: in vitro frog skin bioassay, duration of melanosome dispersion; format: cell-based
Description: Variation in biological effects of α-MSH analogues are generally discussed in terms of "potentiation" (increased activity relative to naturally-occurring α-MSH) and "prolongation". Such effects are measured by the classic frog skin bioassay system. See, Shizume, et al., Endocrinology, 54, 553-560 (1954). Because α-MSH has an extremely short half-life in serum (about 2 minutes), synthetic analogues having greater serum stability in addition to greater potency and prolongation characteristics have been sought.
[Nle^4, D-Phe^7 ]-α-MSH was examined with respect to the duration of its ability to stimulate melanosome dispersion in vitro using the frog (Rana pipiens) skin bioassay as described in Shizume, Endocrinology 54, 553-560 (1954).

[12] = cited from earlier work; remark: listed apart in the source
[13] = s.c., 18 μg/10 g, single injection

## [D-Ser^1]-α-MSH
[1]
  potency / activity relative to the natural hormone: diminished potency
[1]; listed as D-Ser^1
  potency / activity relative to the natural hormone: no more active than the native hormone

## [D-Tyr^2 ]-α-MSH
[1]
  potency / activity relative to the natural hormone: significantly less potent; also recorded: diminished potency

## [Nle^4 ]-α-MSH
[2]; [13]
  duration of darkening effect compared with α-MSH: effective for only a slightly longer period than α-MSH
[3]; after chloramine-T, further contact with sodium iodide
  biological activity upon subsequent exposure to sodium iodide: inactivated; also recorded: loses activity
[3]; chloramine-T, oxidant used in peptide iodination
  biological activity after chloramine-T treatment: resistant to inactivation; also recorded: retains activity
[4]
  loss of biological activity on incubation in serum-containing medium: lost essentially all biological activity
[5]
  potency in dispersing amphibian melanophores relative to α-MSH: approximately twice as potent
[6]
  potency in stimulating melanoma adenylate cyclase activity relative to α-MSH: approximately twice as potent

## [Nle^4, D-Phe^7 ]-α-MSH
[7]
  adenylate cyclase activity after iodination: fully retained its activity
[8]; FIG. 1
  maximal adenylate cyclase activity compared with α-MSH and [Nle4]-α-MSH: same maximal adenylate cyclase activity
[8]; dose-response curves of FIG. 1, Cloudman S-91 mouse melanoma
  potency in stimulating adenylate cyclase relative to the native hormone (α-MSH): 26 times
[2]; s.c., 18 μg/10 g final body concentration
  degree of skin darkening in vivo: Maximum darkening
[2]; s.c., 18 μg/10 g, 6 weeks after single injection
  skin darkening remaining at 6 weeks: half-maximum darkening
[2]; single injection, 0.18 μg/10 g versus 18 μg/10 g final body concentration
  darkening effect of lower dose compared with higher dose: nearly as effective as the higher dose
[4]
  loss of biological activity on incubation in serum-containing medium: almost totally resistant to loss of biological activity
[9]
  tyrosinase activity compared with α-MSH and [Nle4]-α-MSH: much more active
[10]
  duration of prolonged skin darkening: about 3 days
[11]
  duration of melanosome dispersion in vitro: "prolonged" biological effect superior to α-MSH and [Nle^4 ]-α-MSH

## α-Melanotropin [α-MSH]
[2]; [13]
  time by which the darkening effect was totally lost: ≤ 2 days
[3]; iodination for radiolabelling
  biological activity upon oxidative iodination: essentially inactivated; also recorded: loses biological activity
[12]
  half-life in serum: about 2 minutes
